Assay results from publication PMC5225183, “Fingerprinting of neurotoxic compounds using a mouse embryonic stem cell dual luminescence reporter assay” (Archives of Toxicology, 2016).
Where two headings read alike, the source gives them in different places. Marks after values point to notes of the source that are not given here.

What was measured:
ESC-derived neurons = system: ESC-derived neurons
Outline: (§1)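 Mouse CGR8-2Luc ESCs in LIF-containing medium were exposed to compounds for 48 h; ESC-derived neurons (MS5 co-culture, replated day 5 in N2/bFGF medium) were exposed from day 6 to day 8. Read-outs: Tα1-FLuc, EF1α-RLuc and PI DNA content as % of control. LOAEL = lowest concentration giving a significant decrease versus baseline.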

CGR8-2Luc ESCs = system: CGR8-2Luc ESCs
Outline: as §1

[1] = cited from earlier work; for Concentration in humans (increase in blood mercury levels after vaccination): ref Pichichero et al. ([2008])
[2] = system: Tubulin α1 (Tα1) promoter
Outline: (§2)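 Mouse CGR8 ESCs carrying Tα1-firefly and EF1α-Renilla luciferase reporters, treated either undifferentiated (48 h exposure after 24 h plating) or as MS5-induced neurons (exposure day 6 to day 8). Dual-luciferase luminescence expressed as % promoter activity versus DMSO control wells; 5 µM methylmercury as positive control.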

EF1α promoter = system: EF1α promoter
Outline: as §2

[3] = ESC-derived neurons, 48 h exposure, PI assay (cytotoxicity)
[4] = undifferentiated ESCs, 48 h exposure, PI assay (cytotoxicity)
[5] = undifferentiated ESCs, 48 h exposure, lowest tested concentration with statistically significant decrease
[6] = ESC-derived neurons, 48 h exposure
[7] = undifferentiated ESCs, 48 h exposure

C[C@]12CC[C@H](O)CC1=CC[C@@H]1[C@@H]2CC[C@]2(C)C(c3cccnc3)=CC[C@@H]12 [Abiraterone]
LOAEL Neurons DNA (ESC-derived neurons; [3]): >2 µM
LOAEL ESC DNA (CGR8-2Luc ESCs; [4]): >2 µM
Concentration in humans ([1]; ref Zimmer et al. ([2014])): 0.65^k µM
LOAEL ESC Tα1 [2, 5]: >2 µM
LOAEL Neurons EF1α (EF1α promoter; [6]): 2 µM
LOAEL ESC EF1α (EF1α promoter; [7]): >2 µM

O=C(/C=C/c1cccc(S(=O)(=O)Nc2ccccc2)c1)NO [Belinostat]
LOAEL Neurons DNA (ESC-derived neurons; [3]): 50 µM
LOAEL ESC DNA (CGR8-2Luc ESCs; [4]): 0.5 µM
Concentration in humans ([1]; ref Wei et al. ([2014])): 0.36^f µM
LOAEL ESC Tα1 [2, 5]: 5 µM
LOAEL Neurons EF1α (EF1α promoter; [6]): 50 µM
LOAEL ESC EF1α (EF1α promoter; [7]): 5 µM

Nc1ccccc1NC(=O)c1ccc(CNC(=O)OCc2cccnc2)cc1 [Entinostat]
LOAEL Neurons DNA (ESC-derived neurons; [3]): 50 µM
LOAEL ESC DNA (CGR8-2Luc ESCs; [4]): 5 µM
LOAEL ESC Tα1 [2, 5]: 50 µM
effect on general promoter activity in neurons (EF1α promoter): enhanced
LOAEL Neurons EF1α (EF1α promoter; [6]): >50 µM
LOAEL ESC EF1α (EF1α promoter; [7]): 5 µM

COc1cc2ncnc(Nc3ccc(F)c(Cl)c3)c2cc1OCCCN1CCOCC1 [Gefitinib]
LOAEL Neurons DNA (ESC-derived neurons; [3]): 50 µM
LOAEL ESC DNA (CGR8-2Luc ESCs; [4]): 50 µM
Concentration in humans ([1]; ref Zimmer et al. ([2014])): 1.2^k µM
LOAEL ESC Tα1 [2, 5]: 50 µM
LOAEL Neurons EF1α (EF1α promoter; [6]): 50 µM
LOAEL ESC EF1α (EF1α promoter; [7]): 50 µM

COC1=C2C[C@@H](C)C[C@H](OC)[C@H](O)[C@@H](C)/C=C(\C)[C@H](OC(N)=O)[C@@H](OC)/C=C\C=C(/C)C(=O)NC(=CC1=O)C2=O [Geldanamycin]
LOAEL Neurons DNA (ESC-derived neurons; [3]): 0.05 µM
LOAEL ESC DNA (CGR8-2Luc ESCs; [4]): 0.05 µM
Concentration in humans ([1]; ref Zimmer et al. ([2014])): 0.8^k µM
LOAEL ESC Tα1 [2, 5]: 0.005 µM
LOAEL Neurons EF1α (EF1α promoter; [6]): 0.05 µM
LOAEL ESC EF1α (EF1α promoter; [7]): 0.5 µM

[Br][Hg][Br] [Mercury bromide]
LOAEL Neurons DNA (ESC-derived neurons; [3]): >10 µM
cytotoxicity on ESCs (CGR8-2Luc ESCs): highly cytotoxic
LOAEL ESC DNA (CGR8-2Luc ESCs; [4]): 5 µM
LOAEL ESC Tα1 [2, 5]: 5 µM
LOAEL Neurons EF1α (EF1α promoter; [6]): >10 µM
LOAEL ESC EF1α (EF1α promoter; [7]): 5 µM

COCC(=O)O [Methoxyacetic acid]
LOAEL Neurons DNA (ESC-derived neurons; [3]): >50 µM
LOAEL ESC DNA (CGR8-2Luc ESCs; [4]): >50 µM
Concentration in humans (human exposure concentration) ([1]; ref Zimmer et al. ([2014])): 60^k (human exposure concentration) µM
effect on neural promoter activity in ESCs [2]: increase
LOAEL ESC Tα1 [2, 5]: >50 µM
LOAEL Neurons EF1α (EF1α promoter; [6]): >50 µM
LOAEL ESC EF1α (EF1α promoter; [7]): >50 µM

[CH3][Hg][Cl] [Methylmercury]
LOAEL Neurons DNA (ESC-derived neurons; [3]): 0.5 µM
LOAEL ESC DNA (CGR8-2Luc ESCs; [4]): 0.5 µM
Concentration in humans ([1]; ref Krug et al. ([2013b])): 0.005–0.5^e µM
Concentration in humans ([1]; ref Krug et al. ([2013b]), listed as methylmercury): 0.005 to 0.5 µM
LOAEL ESC Tα1 [2, 5]: 0.5 µM
LOAEL Neurons EF1α (EF1α promoter; [6]): 5 µM
LOAEL ESC EF1α (EF1α promoter; [7]): 0.5 µM

COC(=O)c1ccc2c(c1)NC(=O)/C2=C(\Nc1ccc(N(C)C(=O)CN2CCN(C)CC2)cc1)c1ccccc1 [Nintedanib]
LOAEL Neurons DNA (ESC-derived neurons; [3]): 5 µM
LOAEL ESC DNA (CGR8-2Luc ESCs; [4]): 5 µM
Concentration in humans ([1]; ref Zimmer et al. ([2014])): 0.074^k µM
LOAEL ESC Tα1 [2, 5]: 0.5 µM
LOAEL Neurons EF1α (EF1α promoter; [6]): 5 µM
LOAEL ESC EF1α (EF1α promoter; [7]): 5 µM

COc1ccc2[nH]c([S+]([O-])Cc3ncc(C)c(OC)c3C)nc2c1 (centres unmarked) [Omeprazole]
LOAEL Neurons DNA (ESC-derived neurons; [3]): >50 µM
LOAEL ESC DNA (CGR8-2Luc ESCs; [4]): >50 µM
Concentration in humans ([1]; ref Linden et al. ([2007])): 0.8^b µM
LOAEL ESC Tα1 [2, 5]: >50 µM
LOAEL Neurons EF1α (EF1α promoter; [6]): >50 µM
LOAEL ESC EF1α (EF1α promoter; [7]): >50 µM

Brc1ccc(Oc2cc(Br)c(Br)cc2Br)c(Br)c1 [PBDE-99]
effect on cell number in neurons (ESC-derived neurons): moderate cell number decrease
LOAEL Neurons DNA (ESC-derived neurons; [3]): 5 µM
LOAEL ESC DNA (CGR8-2Luc ESCs; [4]): >50 µM
Concentration in humans (human exposure concentration) ([1]; ref Zimmer et al. ([2014])): 97*10^−6k (human exposure concentration) µM
Human exposure concentrations ([1]; ref Zimmer et al. ([2014])): 5 to 100 pM
LOAEL ESC Tα1 [2, 5]: 50 µM
LOAEL Neurons EF1α (EF1α promoter; [6]): 5 µM
LOAEL ESC EF1α (EF1α promoter; [7]): >50 µM

Cc1[nH]c2ccccc2c1CCNCc1ccc(/C=C/C(=O)NO)cc1 [Panobinostat]
LOAEL Neurons DNA (ESC-derived neurons; [3]): 0.05 µM
LOAEL ESC DNA (CGR8-2Luc ESCs; [4]): 0.05 µM
Concentration in humans ([1]; ref Bauer et al. ([2014])): 0.036–0.045^h µM
LOAEL ESC Tα1 [2, 5]: 0.05 µM
LOAEL Neurons EF1α (EF1α promoter; [6]): 50 µM
LOAEL ESC EF1α (EF1α promoter; [7]): 0.05 µM

CC(C)NCC(O)COc1cccc2ccccc12 (centres unmarked) [Propranolol]
LOAEL Neurons DNA (ESC-derived neurons; [3]): 50 µM
LOAEL ESC DNA (CGR8-2Luc ESCs; [4]): >50 µM
Concentration in humans ([1]; ref International Programme on Chemical Safety): 0.12–0.19^d µM
LOAEL ESC Tα1 [2, 5]: 50 µM
LOAEL Neurons EF1α (EF1α promoter; [6]): >50 µM
LOAEL ESC EF1α (EF1α promoter; [7]): 50 µM

O=C(NC[C@H]1CN(c2ccc(N3CCOCC3=O)cc2)C(=O)O1)c1ccc(Cl)s1 [Rivaroxaban]
LOAEL Neurons DNA (ESC-derived neurons; [3]): >10 µM
LOAEL ESC DNA (CGR8-2Luc ESCs; [4]): >10 µM
Concentration in humans ([1]; ref Zimmer et al. ([2014])): 0.69^k µM
LOAEL ESC Tα1 [2, 5]: >10 µM
LOAEL Neurons EF1α (EF1α promoter; [6]): >10 µM
LOAEL ESC EF1α (EF1α promoter; [7]): >10 µM

C/C(O)=C(\C#N)C(=O)Nc1ccc(C(F)(F)F)cc1 [Teriflunomide]
LOAEL Neurons DNA (ESC-derived neurons; [3]): >50 µM
LOAEL ESC DNA (CGR8-2Luc ESCs; [4]): >50 µM
Concentration in humans ([1]; ref Zimmer et al. ([2014])): 10.8^k µM
effect on neural promoter activity in ESCs [2]: increase
LOAEL ESC Tα1 [2, 5]: >50 µM
LOAEL Neurons EF1α (EF1α promoter; mouse, 48 h): >50 µM
LOAEL ESC EF1α (EF1α promoter; [7]): >50 µM

C[CH2][Hg][S]c1ccccc1C(=O)[O-].[Na+] [Thimerosal]
LOAEL Neurons DNA (ESC-derived neurons): 0.5 µM
LOAEL ESC DNA (CGR8-2Luc ESCs): 0.5 µM
increase in blood mercury levels after vaccination ([1]; conversion of <5 ng/ml, ref Pichichero et al. [2008]): ~25 nM
Concentration in humans (increase in blood mercury levels after vaccination) [1]: Max 5 ng/ml^j
Concentration in humans (increase in blood mercury levels after vaccination) ([1]; listed as thimerosal): < 5 ng/mL
LOAEL ESC Tα1 [2]: 0.5 µM
LOAEL ESC EF1α (EF1α promoter): 0.5 µM
LOAEL Neurons EF1α (EF1α promoter): 0.5 µM

O=c1[nH]c(=O)c2[nH]c(=O)[nH]c2[nH]1 [Uric acid]
LOAEL Neurons DNA (ESC-derived neurons; [3]): >50 µM
LOAEL ESC DNA (CGR8-2Luc ESCs; [4]): >50 µM
LOAEL ESC Tα1 [2, 5]: >50 µM
LOAEL Neurons EF1α (EF1α promoter; mouse, 48 h): >50 µM
LOAEL ESC EF1α (EF1α promoter; [7]): >50 µM

CCCC(CCC)C(=O)O [Valproic acid]
LOAEL Neurons DNA (ESC-derived neurons; [3]): 5000 µM
LOAEL ESC DNA (CGR8-2Luc ESCs; [4]): 5000 µM
Concentration in humans ([1]; ref Krug et al. ([2013b])): 500–1000^e µM
LOAEL ESC Tα1 [2, 5]: 5000 µM
LOAEL Neurons EF1α (EF1α promoter; [6]): 5000 µM
LOAEL ESC EF1α (EF1α promoter; [7]): 5000 µM

Erythropoietin: EpoR agonist controlling erythropoiesis and neurogenesis; Peptide/Protein
LOAEL Neurons DNA (ESC-derived neurons): >0.238 µM
LOAEL ESC DNA (CGR8-2Luc ESCs): >0.238 µM
Concentration in humans ([1]; ref Zimmer et al. ([2014])): 0.0003^k µM
LOAEL ESC Tα1 [2, 5]: >0.238 µM
effect on general promoter activity in neurons (EF1α promoter): selectively increased
LOAEL Neurons EF1α (EF1α promoter; [6]): >0.238 µM
LOAEL ESC EF1α (EF1α promoter; [7]): >0.238 µM

Oxytocin
LOAEL Neurons DNA (ESC-derived neurons; [3]): >0.1 µM
LOAEL ESC DNA (CGR8-2Luc ESCs; [4]): >0.1 µM
Concentration in humans ([1]; ref Zimmer et al. ([2014])): 0.002^k µM
LOAEL ESC Tα1 [2, 5]: >0.1 µM
LOAEL Neurons EF1α (EF1α promoter; [6]): >0.1 µM
LOAEL ESC EF1α (EF1α promoter; [7]): >0.1 µM

B1: G-CSF: Hormone stimulating granulopoiesis; Peptide/Protein (protein, UniProt P09919 31-207, looked up)
Granulocyte …: TPLGPASSLPQSFLLKCLEQVRKIQGDGAALQEKLVSECATYKLCHPEELVLLGHSLGIPWAPLSSCPSQALQLAGCLSQLHSGLFLYQGLLQALEGISPELGPTLDTLQLDVADFATTIWQQMEELGMAPALQPTQGAMPAFASAFQRRAGGVLVASHLQSFLEVSYRVLRHLAQP
LOAEL Neurons DNA (ESC-derived neurons): >0.00266 µM
LOAEL ESC DNA (CGR8-2Luc ESCs): >0.00266 µM
Concentration in humans ([1]; ref Zimmer et al. ([2014])): 1.3*10^−6k µM
LOAEL ESC Tα1 [2, 5]: >0.00266 µM
effect on general promoter activity in neurons (EF1α promoter): selectively increased
LOAEL Neurons EF1α (EF1α promoter; [6]): >0.00266 µM
LOAEL ESC EF1α (EF1α promoter; [7]): >0.00266 µM
